Data taken from ChEMBL document CHEMBL5352460, “Antibacterial activity evaluation of pleuromutilin derivatives with 4(3H)-quinazolinone scaffold against methicillin-resistant Staphylococcusaureus” (Eur J Med Chem, 2023).
≈ marks a conversion by molar mass, not a printed value.

Key:
Staphylococcus aureus [1] = assay: microbe, parasite or virus in culture; format: functional; conditions: ATCC25923, time 20 hrs
Staphylococcus aureus [2] = assay: microbe, parasite or virus in culture; format: functional; conditions: time 20 hrs
[3] = Antibacterial activity against Salmonella pullorum assessed as inhibition of bacterial growth incubated for 20 hrs by absorbance based analysis; format: functional, Salmonella enterica subsp. enterica serovar Pullorum; conditions: Salmonella enterica
[4] = tested on: Staphylococcus epidermidis; assay: Antibacterial activity against methicillin-resistant Staphylococcus epidermidis assessed as inhibition of bacterial growth incubated for 20 hrs by absorbance based analysis; format: functional
Staphylococcus aureus [5] = assay: microbe, parasite or virus in culture; format: functional; conditions: ATCC29213, time 20 hrs
Escherichia coli = assay: microbe, parasite or virus in culture; format: functional; conditions: ATCC25922, time 20 hrs

| SMILES | MIC (Staphylococcus aureus [1]) [µg/mL] | MIC (Staphylococcus aureus [2]) [µg/mL] | MIC [3] [µg/mL] | MIC [4] [µg/mL] | MIC (Staphylococcus aureus [5]) [µg/mL] | MIC (Escherichia coli) [µg/mL] |
| --- | --- | --- | --- | --- | --- | --- |
| C=C[C@]1(C)C[C@@H](OC(=O)CSc2nc3c(C)cccc3c(=O)[nH]2)[C@]2(C)[C@H](C)CC[C@]3(CCC(=O)[C@H]32)[C@@H](C)[C@@H]1O | 0.25 (≈ 0.452 µM) | 0.125 (≈ 0.226 µM) | > 64 | 1 (≈ 1.81 µM) | 0.125 (≈ 0.226 µM) | > 64 |
| C=C[C@]1(C)C[C@@H](OC(=O)CSc2nc3ccccc3c(=O)n2C2CCCCC2)[C@]2(C)[C@H](C)CC[C@]3(CCC(=O)[C@H]32)[C@@H](C)[C@@H]1O | > 64 | > 64 | > 64 | > 64 | > 64 | > 64 |
| C=C[C@]1(C)C[C@@H](OC(=O)CSc2nc3cc(Cl)ccc3c(=O)[nH]2)[C@]2(C)[C@H](C)CC[C@]3(CCC(=O)[C@H]32)[C@@H](C)[C@@H]1O | 0.5 (≈ 0.872 µM) | 0.5 (≈ 0.872 µM) | > 64 | 1 (≈ 1.74 µM) | 0.25 (≈ 0.436 µM) | > 64 |
| C=C[C@]1(C)C[C@@H](OC(=O)CSc2nc3c(c(=O)[nH]2)CCC3)[C@]2(C)[C@H](C)CC[C@]3(CCC(=O)[C@H]32)[C@@H](C)[C@@H]1O | 0.25 (≈ 0.473 µM) | 0.25 (≈ 0.473 µM) | > 64 | 1 (≈ 1.89 µM) | 0.25 (≈ 0.473 µM) | > 64 |
| C=C[C@]1(C)C[C@@H](OC(=O)CSc2nc3ccccc3c(=O)n2C)[C@]2(C)[C@H](C)CC[C@]3(CCC(=O)[C@H]32)[C@@H](C)[C@@H]1O | 0.125 (≈ 0.226 µM) | 0.25 (≈ 0.452 µM) | > 64 | 0.5 (≈ 0.905 µM) | 0.063 (≈ 0.114 µM) | 64 (≈ 116 µM) |
| C=C[C@]1(C)C[C@@H](OC(=O)CSc2nc3cc(C)ccc3c(=O)[nH]2)[C@]2(C)[C@H](C)CC[C@]3(CCC(=O)[C@H]32)[C@@H](C)[C@@H]1O | 0.25 (≈ 0.452 µM) | 0.5 (≈ 0.905 µM) | > 64 | 2 (≈ 3.62 µM) | 0.5 (≈ 0.905 µM) | > 64 |
| C=C[C@]1(C)C[C@@H](OC(=O)CSc2nc3cccc(C)c3c(=O)[nH]2)[C@]2(C)[C@H](C)CC[C@]3(CCC(=O)[C@H]32)[C@@H](C)[C@@H]1O | 0.25 (≈ 0.452 µM) | 0.25 (≈ 0.452 µM) | > 64 | 2 (≈ 3.62 µM) | 0.25 (≈ 0.452 µM) | > 64 |
| C=C[C@]1(C)C[C@@H](OC(=O)CSc2nc3ccc(Cl)cc3c(=O)[nH]2)[C@]2(C)[C@H](C)CC[C@]3(CCC(=O)[C@H]32)[C@@H](C)[C@@H]1O | 0.25 (≈ 0.436 µM) | 0.25 (≈ 0.436 µM) | > 64 | 1 (≈ 1.74 µM) | 0.25 (≈ 0.436 µM) | > 64 |
| C=C[C@]1(C)C[C@@H](OC(=O)CSc2nc3ccc(Br)cc3c(=O)[nH]2)[C@]2(C)[C@H](C)CC[C@]3(CCC(=O)[C@H]32)[C@@H](C)[C@@H]1O | 0.25 (≈ 0.405 µM) | 0.25 (≈ 0.405 µM) | > 64 | 2 (≈ 3.24 µM) | 0.25 (≈ 0.405 µM) | > 64 |
| C=C[C@]1(C)C[C@@H](OC(=O)CSc2nc3cc(Br)ccc3c(=O)[nH]2)[C@]2(C)[C@H](C)CC[C@]3(CCC(=O)[C@H]32)[C@@H](C)[C@@H]1O | 0.25 (≈ 0.405 µM) | 0.5 (≈ 0.81 µM) | > 64 | 4 (≈ 6.48 µM) | 0.25 (≈ 0.405 µM) | > 64 |
| C=C[C@]1(C)C[C@@H](OC(=O)CSc2nc3ccc(OC)cc3c(=O)[nH]2)[C@]2(C)[C@H](C)CC[C@]3(CCC(=O)[C@H]32)[C@@H](C)[C@@H]1O | 0.25 (≈ 0.44 µM) | 0.25 (≈ 0.44 µM) | > 64 | 4 (≈ 7.03 µM) | 0.125 (≈ 0.22 µM) | > 64 |
| C=C[C@]1(C)C[C@@H](OC(=O)CSc2nc3cccc(Br)c3c(=O)n2-c2ccccc2)[C@]2(C)[C@H](C)CC[C@]3(CCC(=O)[C@H]32)[C@@H](C)[C@@H]1O | > 64 | > 64 | > 64 | > 64 | > 64 | > 64 |
| C=C[C@]1(C)C[C@@H](OC(=O)CSc2nc3cccc(F)c3c(=O)[nH]2)[C@]2(C)[C@H](C)CC[C@]3(CCC(=O)[C@H]32)[C@@H](C)[C@@H]1O | 0.25 (≈ 0.449 µM) | 0.25 (≈ 0.449 µM) | > 64 | 2 (≈ 3.59 µM) | 0.25 (≈ 0.449 µM) | > 64 |
| C=C[C@]1(C)C[C@@H](OC(=O)CSc2nc3ccccc3c(=O)[nH]2)[C@]2(C)[C@H](C)CC[C@]3(CCC(=O)[C@H]32)[C@@H](C)[C@@H]1O | 0.25 (≈ 0.464 µM) | 0.25 (≈ 0.464 µM) | > 64 | 1 (≈ 1.86 µM) | 0.25 (≈ 0.464 µM) | > 64 |
| C=C[C@]1(C)C[C@@H](OC(=O)CN2CCN(C(=O)c3nc4ccccc4c(=O)[nH]3)CC2)[C@]2(C)[C@H](C)CC[C@]3(CCC(=O)[C@H]32)[C@@H](C)[C@@H]1O | 1 (≈ 1.62 µM) | 0.5 (≈ 0.808 µM) | > 64 | 2 (≈ 3.23 µM) | 0.5 (≈ 0.808 µM) | > 64 |
| C=C[C@]1(C)C[C@@H](OC(=O)CSc2nc3c(Br)cccc3c(=O)[nH]2)[C@]2(C)[C@H](C)CC[C@]3(CCC(=O)[C@H]32)[C@@H](C)[C@@H]1O | 0.25 (≈ 0.405 µM) | 0.25 (≈ 0.405 µM) | > 64 | 2 (≈ 3.24 µM) | 0.5 (≈ 0.81 µM) | > 64 |
| C=C[C@]1(C)C[C@@H](OC(=O)CSc2nc3ccccc3c(=O)n2-c2ccccc2)[C@]2(C)[C@H](C)CC[C@]3(CCC(=O)[C@H]32)[C@@H](C)[C@@H]1O | 32 (≈ 52 µM) | 32 (≈ 52 µM) | > 64 | 64 (≈ 104 µM) | 32 (≈ 52 µM) | > 64 |
| C=C[C@]1(C)C[C@@H](OC(=O)CSc2nc3c(Cl)cccc3c(=O)[nH]2)[C@]2(C)[C@H](C)CC[C@]3(CCC(=O)[C@H]32)[C@@H](C)[C@@H]1O | 0.125 (≈ 0.218 µM) | 0.125 (≈ 0.218 µM) | > 64 | 1 (≈ 1.74 µM) | 0.125 (≈ 0.218 µM) | > 64 |
| C=C[C@]1(C)C[C@@H](OC(=O)CSc2nc3ncccc3c(=O)[nH]2)[C@]2(C)[C@H](C)CC[C@]3(CCC(=O)[C@H]32)[C@@H](C)[C@@H]1O | 4 (≈ 7.41 µM) | 2 (≈ 3.71 µM) | > 64 | 8 (≈ 14.8 µM) | 2 (≈ 3.71 µM) | > 64 |
| C=C[C@]1(C)C[C@@H](OC(=O)CSc2nc3cccc([N+](=O)[O-])c3c(=O)[nH]2)[C@]2(C)[C@H](C)CC[C@]3(CCC(=O)[C@H]32)[C@@H](C)[C@@H]1O | 0.25 (≈ 0.428 µM) | 0.25 (≈ 0.428 µM) | > 64 | 4 (≈ 6.85 µM) | 0.25 (≈ 0.428 µM) | > 64 |
| C=C[C@]1(C)C[C@@H](OC(=O)CSc2nc3ccc(F)cc3c(=O)[nH]2)[C@]2(C)[C@H](C)CC[C@]3(CCC(=O)[C@H]32)[C@@H](C)[C@@H]1O | 0.25 (≈ 0.449 µM) | 0.5 (≈ 0.898 µM) | > 64 | 2 (≈ 3.59 µM) | 0.25 (≈ 0.449 µM) | > 64 |
| C=C[C@]1(C)C[C@@H](OC(=O)CSc2nc3sccc3c(=O)[nH]2)[C@]2(C)[C@H](C)CC[C@]3(CCC(=O)[C@H]32)[C@@H](C)[C@@H]1O | 0.25 (≈ 0.459 µM) | 0.25 (≈ 0.459 µM) | > 64 | 1 (≈ 1.84 µM) | 0.25 (≈ 0.459 µM) | 64 (≈ 117 µM) |
| C=C[C@]1(C)C[C@@H](OC(=O)CN2CCN(Cc3nc4ccccc4c(=O)[nH]3)CC2)[C@]2(C)[C@H](C)CC[C@]3(CCC(=O)[C@H]32)[C@@H](C)[C@@H]1O | 1 (≈ 1.65 µM) | 2 (≈ 3.31 µM) | > 64 | 2 (≈ 3.31 µM) | 1 (≈ 1.65 µM) | > 64 |
